Laboratory results published in US10414759B2, “Phenylthiazoles and uses thereof” (Purdue Research Foundation, priority 2017, dated 2019).
Values after ≈ are worked out from the molar mass of the structure shown.

Columns and labels:
S. aureus NRS107 = experiment: MIC/MBC S. aureus strains (Table 8); assay type: cell-based, Staphylococcus aureus; settings: Staphylococcus aureus; Table 8; S. aureus NRS107
Protocol: (§1) A bacterial solution equivalent to 0.5 McFarland standard was prepared and diluted in cation-adjusted Mueller-Hinton broth (CAMHB) to achieve a bacterial concentration of about 5×10^5 CFU/mL and seeded in 96-well plates. Enterococcus faecium was diluted in brain heart infusion broth. Enterococcus faecalis, Streptococcus pneumonia and Listeria monocytogenes were diluted in tryptone soya broth (TSB).

MRSA (USA300) = experiment: Time-kill assay; assay type: cell-based, Staphylococcus aureus; settings: for bactericidal / bacteriostatic behaviour in time-kill assay, in words: MRSA
Protocol: Aliquots (100 μL) were taken from each sample after 2, 4, 6, 8, 10, 12, and 24 hours, serially diluted in phosphate-buffered saline, and transferred to Trypticase soy agar (TSA) (Becton, Dickinson and Company, Sparks, Md., USA) plates. Plates were incubated at 37° C. for at least 16 hours before counting viable CFU/mL to determine the time required to reduce the bacterial cell count by 3-log10.

MRSA NRS386 = experiment: MIC/MBC S. aureus strains (Table 8); assay type: cell-based; settings: Staphylococcus aureus
Protocol: as §1

MRSA NRS123 (USA400) = experiment: MIC/MBC S. aureus strains (Table 8); assay type: cell-based; settings: Staphylococcus aureus
Protocol: as §1

MRSA NRS384 (USA300) = experiment: MIC/MBC S. aureus strains (Table 8); assay type: cell-based; settings: Staphylococcus aureus
Protocol: as §1

MRSA NRS119 = experiment: MIC/MBC S. aureus strains (Table 8); assay type: cell-based; settings: Staphylococcus aureus
Protocol: as §1

S. aureus ATCC 6538 = experiment: MIC/MBC S. aureus strains (Table 8); assay type: cell-based; settings: Staphylococcus aureus, ATCC6538
Protocol: as §1

MRSA NRS385 = experiment: MIC/MBC S. aureus strains (Table 8); assay type: cell-based; settings: Staphylococcus aureus
Protocol: as §1

VRS12 (VRSA) = experiment: MIC/MBC S. aureus strains (Table 8); assay type: cell-based; settings: Staphylococcus aureus, Table 8, VRS12 (VRSA); for MBC: read-out: MBC; for MIC: read-out: MIC
Protocol: (§2) The minimum inhibitory concentration (MIC) of tested compounds and control antibiotics were determined using the broth microdilution method in accordance with the recommendations contained in the Clinical and Laboratory Standards Institute guidelines, against methicillin-sensitive (ATCC 6538 and NRS107), methicillin-resistant (MRSA), and vancomycin-resistant (VRSA) Staphylococcus aureus, Staphylococcus epidermidis, Enterococcus faecalis, E. faecium, Listeria monocytogenes, and Streptococcus pneumoniae clinical isolates. A bacterial solution equivalent to 0.5 McFarland standard was prepared and diluted in cation-adjusted Mueller-Hinton broth (CAMHB) to achieve a bacterial concentration of about 5×10^5 CFU/mL and seeded in 96-well plates. Enterococcus faecium was diluted in brain heart infusion broth. Enterococcus faecalis, Streptococcus pneumonia and Listeria monocytogenes were diluted in tryptone soya broth (TSB). Compounds and control drugs were added in the first row of 96-well plates and serially diluted (to achieve a concentration gradient ranging from 128 to 1 μg/mL). Plates were then incubated aerobically at 37° C. for at least 18 hours. The minimum bactericidal concentration (MBC) of the active compounds was tested by plating 5 μL from wells with no growth onto Tryptic soy agar (TSA) plates.

VRS10 (VRSA) = experiment: MIC/MBC S. aureus strains (Table 8); assay type: cell-based; settings: Staphylococcus aureus, Table 8, VRS10 (VRSA); for MBC: read-out: MBC; for MIC: read-out: MIC
Protocol: as §2

MRSA (2658 RCMB) = experiment: MIC against MRSA (2658 RCMB), broth dilution; assay type: cell-based, Staphylococcus aureus; settings: Staphylococcus aureus; Table 7; initial screening, MRSA (2658 RCMB); read-out: minimum inhibitory concentration (MIC)
Protocol: (§3) Bacteria were cultured in cation-adjusted Mueller Hinton broth in a 96-well plate. Compounds, using triplicate samples, were added to the plate and serially diluted. […] Plates were visually inspected and the MIC was categorized as the concentration at which no visible growth of bacteria was observed. The average of triplicate MIC determinations is reported.
as §1

[1] = test system: Enterococcus faecium ATCC 700221 (VRE); experiment: MIC/MBC Gram-positive pathogens (Table 9); assay type: cell-based; settings: Table 9; Enterococcus faecium ATCC 700221 (VRE); read-out: MIC
Protocol: as §2

[2] = test system: human colorectal (Caco-2) cell; experiment: In vitro cytotoxicity against Caco-2 cells (MTS); assay type: cell-based; settings: at 32 μg/mL
Protocol: Tested compounds were assayed (at concentrations of 16, 32, and 64 μg/mL) against a human colorectal (Caco-2) cell to determine the potential toxic effect to mammalian cells in vitro. Briefly, cells were cultured in Dulbecco's Modified Eagle Medium (DMEM) supplemented with 20% fetal bovine serum (FBS), non-essential amino acids (1×), and penicillin-streptomycin at 37° C. with CO2 (5%). Control cells received DMSO alone at a concentration equal to that in drug-treated cell samples. The cells were incubated with the compounds (in triplicate) in a 96-well plate at 37° C. with CO2 (5%) for two hours. The assay reagent MTS 3-(4,5-dimethylthiazol-2-yl)-5-(3-carboxymethoxyphenyl)-2-(4-sulfophenyl)-2H-tetrazolium) (Promega, Madison, Wis., USA) was subsequently added and the plate was incubated for four hours. Absorbance readings (at OD490) were taken using a kinetic microplate reader (Molecular Devices, Sunnyvale, Calif., USA). The quantity of viable cells after treatment with each compound was expressed as a percentage of the viability of DMSO-treated control cells (average of triplicate wells±standard deviation). The toxicity data was analyzed via a two-way ANOVA, with post hoc Sidak's multiple comparisons test (P<0.05), utilizing GraphPad Prism 6.0 (GraphPad Software, La Jolla, Calif.).

[3] = test system: Enterococcus faecalis ATCC 51299 (VRE); experiment: MIC/MBC Gram-positive pathogens (Table 9); assay type: cell-based; settings: Table 9; Enterococcus faecalis ATCC 51299 (VRE)
Protocol: as §1

[4] = test system: Listeria monocytogenes ATCC 19111; experiment: MIC/MBC Gram-positive pathogens (Table 9); assay type: cell-based; settings: for MBC / MIC: ATCC19111, Table 9, Listeria monocytogenes ATCC 19111
Protocol: as §1

[5] = test system: Methicillin-resistant Staphylococcus epidermidis NRS101; experiment: MIC/MBC Gram-positive pathogens (Table 9); assay type: cell-based
Protocol: as §1

[6] = test system: Methicillin-resistant Streptococcus pneumoniae ATCC 700677; experiment: MIC/MBC Gram-positive pathogens (Table 9); assay type: cell-based; settings: ATCC700677
Protocol: as §1

[7] = test system: Cephalosporin-resistant Streptococcus pneumoniae ATCC 51916; experiment: MIC/MBC Gram-positive pathogens (Table 9); assay type: cell-based; settings: ATCC51916
Protocol: as §1

NRS382 (MRSA USA100) = experiment: MIC/MBC clinical isolate panel (Table 3); assay type: cell-based, S. aureus; settings: Staphylococcus aureus, Table 3, NRS382 (MRSA USA100)
Protocol: as §3, §1

NRS384 (MRSA USA300) = experiment: MIC/MBC clinical isolate panel (Table 3); assay type: cell-based, S. aureus; settings: Staphylococcus aureus; Table 3; NRS384 (MRSA USA300)
Protocol: as §3, §1

NRS123 (MRSA USA400) = experiment: MIC/MBC clinical isolate panel (Table 3); assay type: cell-based, S. aureus; settings: Staphylococcus aureus; Table 3; NRS123 (MRSA USA400)
Protocol: as §3, §1

NRS383 (MRSA USA200) = experiment: MIC/MBC clinical isolate panel (Table 3); assay type: cell-based, S. aureus; settings: Staphylococcus aureus, Table 3, NRS383 (MRSA USA200)
Protocol: as §3, §1

NRS72 (MSSA) = experiment: MIC/MBC clinical isolate panel (Table 3); assay type: cell-based, S. aureus; settings: Staphylococcus aureus, Table 3, NRS72 (MSSA)
Protocol: as §3, §1

VRSA10 = experiment: MIC/MBC clinical isolate panel (Table 3); assay type: cell-based, S. aureus; settings: Staphylococcus aureus, Table 3, VRSA10
Protocol: as §3, with “MRSA clinical isolates, and vancomycin-resistant Staphylococcus aureus (VRSA) strain were obtained through the Network of Antimicrobial Resistance in Staphylococcus aureus (NARSA) program. In addition, vancomycin-resistant Enterococcus faecium (VRE) strain was obtained from the ATCC. Bacteria” for “Bacteria”
as §2

VRE ATCC 700221 = experiment: MIC/MBC clinical isolate panel (Table 3); assay type: cell-based, Enterococcus faecium; settings: Enterococcus, Table 3, VRE ATCC 700221
Protocol: as §3, with “MRSA clinical isolates, and vancomycin-resistant Staphylococcus aureus (VRSA) strain were obtained through the Network of Antimicrobial Resistance in Staphylococcus aureus (NARSA) program. In addition, vancomycin-resistant Enterococcus faecium (VRE) strain was obtained from the ATCC. Bacteria” for “Bacteria”
as §2

SMILES	MBC (S. aureus NRS107)	MIC (S. aureus NRS107)	bactericidal / bacteriostatic behaviour in time-kill assay, in words (MRSA (USA300); 3.0×MIC)	MBC (MRSA NRS386)	MIC (MRSA NRS386)	MBC (MRSA NRS123 (USA400))	MIC (MRSA NRS123 (USA400))	MBC (MRSA NRS384 (USA300))	MIC (MRSA NRS384 (USA300))	MBC (MRSA NRS119)	MIC (MRSA NRS119)	MBC (S. aureus ATCC 6538)	MIC (S. aureus ATCC 6538)	MBC (MRSA NRS385)	MIC (MRSA NRS385)	MBC (VRS12 (VRSA))	MIC (VRS12 (VRSA))	MBC (VRS10 (VRSA))	MIC (VRS10 (VRSA))	MIC (MRSA (2658 RCMB))	other results
Cc1nc(-c2ccc(C(C)(C)C)cc2)sc1-c1ccnc(NC(=N)N(C)C)n1 [Compound 58, 3-(4-(2-(4-(tert-Butyl)phenyl)-4-methylthiazol-5-yl)pyrimidin-2-yl)-1,1-dimethylguanidine]	8 µg/mL (≈ 20.3 µM)	8 µg/mL (≈ 20.3 µM)	rapid bactericidal activity	8 µg/mL (≈ 20.3 µM)	8 µg/mL (≈ 20.3 µM)	8 µg/mL (≈ 20.3 µM)	8 µg/mL (≈ 20.3 µM)	8 µg/mL (≈ 20.3 µM)	8 µg/mL (≈ 20.3 µM)	8 µg/mL (≈ 20.3 µM)	8 µg/mL (≈ 20.3 µM)	8 µg/mL (≈ 20.3 µM)	8 µg/mL (≈ 20.3 µM)	8 µg/mL (≈ 20.3 µM)	8 µg/mL (≈ 20.3 µM)	8 µg/mL (≈ 20.3 µM)	8 µg/mL (≈ 20.3 µM)	8 µg/mL (≈ 20.3 µM)	8 µg/mL (≈ 20.3 µM)	1.17 µg/mL (≈ 2.97 µM)	time to completely eradicate the MRSA inoculum (MRSA (USA300); t-butyl series, 3.0×MIC): within two to four hours; MIC [1]: 8 µg/mL (≈ 20.3 µM); tolerability to human colorectal cells, in words [2]: intolerable; MIC [3]: 8 µg/mL (≈ 20.3 µM); MBC [4]: 8 µg/mL (≈ 20.3 µM); MIC [4]: 8 µg/mL (≈ 20.3 µM); MBC [5]: 8 µg/mL (≈ 20.3 µM); MIC [5]: 8 µg/mL (≈ 20.3 µM)
Cc1nc(-c2ccc(C(C)(C)C)cc2)sc1-c1ccnc(NC(=N)c2cccnc2)n1 [Compound 63, N-(4-(2-(4-(tert-Butyl)phenyl)-4-methylthiazol-5-yl)pyrimidin-2-yl) nicotinimidamide]	4 µg/mL (≈ 9.33 µM)	4 µg/mL (≈ 9.33 µM)	bacteriostatic activity	4 µg/mL (≈ 9.33 µM)	4 µg/mL (≈ 9.33 µM)	4 µg/mL (≈ 9.33 µM)	4 µg/mL (≈ 9.33 µM)	4 µg/mL (≈ 9.33 µM)	4 µg/mL (≈ 9.33 µM)	4 µg/mL (≈ 9.33 µM)	4 µg/mL (≈ 9.33 µM)	4 µg/mL (≈ 9.33 µM)	4 µg/mL (≈ 9.33 µM)	4 µg/mL (≈ 9.33 µM)	4 µg/mL (≈ 9.33 µM)	4 µg/mL (≈ 9.33 µM)	4 µg/mL (≈ 9.33 µM)	4 µg/mL (≈ 9.33 µM)	4 µg/mL (≈ 9.33 µM)	0.78 µg/mL (≈ 1.82 µM)	decrease in MRSA CFU (MRSA (USA300); over 24 hours): 2.3 log; MIC [1]: 8 µg/mL (≈ 18.7 µM); tolerability to human colorectal cells, in words [2]: highly tolerable; MIC [3]: 8 µg/mL (≈ 18.7 µM); MBC [6]: 8 µg/mL (≈ 18.7 µM); MIC [6]: 4 µg/mL (≈ 9.33 µM); MBC [7]: 8 µg/mL (≈ 18.7 µM); MIC [7]: 4 µg/mL (≈ 9.33 µM); MBC [4]: 64 µg/mL (≈ 149 µM); MIC [4]: 4 µg/mL (≈ 9.33 µM); MBC values relative to MIC values against L. monocytogenes ([4]; text b122): more than three-fold higher; MBC [5]: > 64 µg/mL; MIC [5]: 64 µg/mL (≈ 149 µM)
CC(=O)NC[C@H]1CN(c2ccc(N3CCOCC3)c(F)c2)C(=O)O1 [Linezolid, linezolid]				64 µg/mL (≈ 190 µM)			1 µg/mL (≈ 2.96 µM)		1 µg/mL (≈ 2.96 µM)	> 64 µg/mL	32 µg/mL (≈ 94.9 µM)					64 µg/mL (≈ 190 µM)		64 µg/mL (≈ 190 µM)			MBC (NRS382 (MRSA USA100)): 8 µg/mL (≈ 23.7 µM); MIC (NRS382 (MRSA USA100); read-out: MIC): 1 µg/mL (≈ 2.96 µM); MBC (NRS384 (MRSA USA300)): 4 µg/mL (≈ 11.9 µM); MBC (NRS123 (MRSA USA400)): 16 µg/mL (≈ 47.4 µM); MBC (NRS383 (MRSA USA200)): 32 µg/mL (≈ 94.9 µM); MIC (NRS383 (MRSA USA200); read-out: MIC): 1 µg/mL (≈ 2.96 µM); MBC (NRS72 (MSSA)): 2 µg/mL (≈ 5.93 µM); MIC (NRS72 (MSSA); read-out: MIC): 1 µg/mL (≈ 2.96 µM); MBC (VRSA10; read-out: MBC): 2 µg/mL (≈ 5.93 µM); MIC (VRSA10; read-out: MIC): 1 µg/mL (≈ 2.96 µM); MBC (VRE ATCC 700221; read-out: MBC): 32 µg/mL (≈ 94.9 µM); MIC (VRE ATCC 700221; read-out: MIC): 1 µg/mL (≈ 2.96 µM)
